Experimental data from publication PMC12428554, “Anti-HIV and Antimicrobial Activity of 7-Hydrazino-8-hydroxyquinoline-Based Aromatic Hydrazones” (International Journal of Molecular Sciences, 2025).
Values joined by “and” are separate entries in the source; they are usually repeats but may differ in a detail not shown here. Equal entries are not always repeated. Each block holds one compound with its values, some of them ahead of it.

How the values were obtained:
[1] = molecular target: T1, recombinant HIV-1 Integrase (strand transfer) (Human immunodeficiency virus type 1 group M subtype B, UniProt P04585); set-up: method as in PMID 12234864; conditions: positive control, known value; cited from earlier work
T1 construct: The recombinant HIV-1 Integrase (In) was isolated from the Rosetta Escherichia coli producer strain; made in house; host or cells: Escherichia coli Rosetta

C. albicans ATCC 10231 = assay: MIC by twofold serial dilution, C. albicans; assay type: cell-based; conditions: Candida albicans, ATCC10231; 24 h, 35 °C; read-out: MIC (Mean ± SE) C. albicans ATCC 10231
Description: (§1) Candida albicans ATCC 10231, Pseudomonas aeruginosa ATCC 27853, and Staphylococcus aureus ATCC 29213 strains were obtained from the American Type Culture Collection (ATCC; Rockville, MD, USA). The subculture and inoculum preparation were performed according to CLSI M27-A3 for C. albicans on yeast extract peptone dextrose (YPD) agar (HiMedia, Mumbai, Maharashtra, India) and RPMI-1640 medium (PanEco, Moscow, Russia) with MOPS (3-(N-morpholino) propanesulfonic acid, >99.5%; PanEco, Moscow, Russia), and M7-A11 for P. aeruginosa and S. aureus on Mueller-Hinton agar (MHA; HiMedia, Mumbai, Maharashtra, India) and Mueller-Hinton broth (MHB; HiMedia, Mumbai, Maharashtra, India). The stock cell concentrations of fungus and bacteria were 1 × 10^6 and 1 × 10^8 cells/mL, respectively. A working suspension of C. albicans (5.0 × 10^2 cells/mL) was prepared by two-step dilution of the broth concentration with the RPMI-1640 medium. Assay suspensions of P. aeruginosa and S. aureus (1.0 × 10^6 cells/mL) were prepared by diluting the concentration with Mueller-Hinton broth (HiMedia, Mumbai, Maharashtra, India). Amphotericin B (Sigma-Aldrich, Burlington, MA, USA) and gentamicin (Sigma-Aldrich, Burlington, MA, USA) were used as secondary pharmaceutical standards.
(§2) The minimum inhibitory concentration (MIC) was determined by the twofold serial dilution method, according to CLSI M27-A3 [33] and M07-A11 [34], in three independent experiments with four replicates each. Amphotericin B was used as a positive control for fungus; gentamicin was used as a positive control for bacteria. Stock solutions except gentamicin were prepared in DMSO at a concentration of 6400 μg/mL. Gentanicin was solubilized in sterile water at a concentration of 1280 μg/mL. Stock solutions of the tested substances were diluted to the final concentrations in the assay medium and 100 μL of each sample was added to the wells of 96-well plates, and then 100 μL of inoculum was added. Rows 11 and 12 were left for the negative control (medium with inoculum without the drug) and sterility control. The plates were incubated for 24 h at 35 °C in the case of C. albicans and at 37 °C in the case of P. aeruginosa and S. aureus. The tested concentration for gentamicin ranged from 0.0625 to 32 μg/mL; for other compounds, it ranged from 0.125 to 64 μg/mL. The MIC value was determined using spectrophotometer. The MIC was taken to be the lowest drug concentration that caused complete inhibition of microorganism growth compared to the control. The final MIC values were reported as the means with standard error (SE). Standard errors for µg/mL values less than 0.01 were excluded; standard errors for µM values less than 0.1 were excluded (Table 3).

[2] = test system: HIV-1 (subtype B) in MT-4 cells; assay: Antigen p24 assay in HIV-infected MT-4 cells; assay type: cell-based; conditions: Human immunodeficiency virus 1, MT4; HIV-1 899A strain (subtype B), third day after infection
Description: The human MT-4 lymphoblastoid cells were cultured in RPMI 1640 medium supplemented with 10% fetal bovine serum (FBS) (HyClone, Logan, UT, USA), 2 mM L-glutamine, 50 U/mL penicillin, and 50 μg/mL streptomycin in a humidified atmosphere of 5% CO2 at 37 °C. The cells were re-seeded at a density of 3.0 × 10^5 cells/mL every three days. The HIV-1_899A strain (subtype B) was used from the collection of human immunodeficiency virus strains of the D.I. Ivanovsky Institute of Virology, N. F. Gamaleya National Research Center of Epidemiology and Microbiology, Ministry of Health, Moscow, Russia. The commercial drug Efavirenz (EFV), a non-nucleoside inhibitor of HIV reverse transcriptase, was used as a positive control. HIV-1 was added to the cells at 0.1 CCID50 (50% cell culture infectious dose). The cells, both infected and non-infected, were then incubated at 37 °C in a humidified atmosphere containing 5% CO2 for a 40 min period, after which the cells were washed twice in serum-free RPMI 1640 and plated into the wells of a 96-well plate. The tested compounds were then added to the cells at concentrations from 0.5 μM to 100 μM. The final ethanol concentration was 1% v/v. On the third day after infection, the culture fluid was collected for determining the amount of p24 antigen by enzyme immunoassay analysis using a commercial test system kit (Genscreen ULTRA HIV Ag-Ab, Bio-Rad, Hercules, CA, USA). Cell viability was measured by MTT assay.

S. aureus ATCC 29213 = assay: MIC by twofold serial dilution, S. aureus; assay type: cell-based; conditions: Staphylococcus aureus, ATCC29213, 24 h, 37 °C, read-out: MIC (Mean ± SE) S. aureus ATCC 29213
Description: as §1, §2

P. aeruginosa ATCC 27853 = assay: MIC by twofold serial dilution, P. aeruginosa; assay type: cell-based; conditions: Pseudomonas aeruginosa, ATCC27853; 24 h, 37 °C; read-out: MIC (Mean ± SE) P. aeruginosa ATCC 27853
Description: as §1, §2

[3] = test system: HIV Rev – HIV RNA complex; set-up: method as in PMID 25503645, PMID 17967062; conditions: Figure 1; cited from earlier work
Ku70 = test system: Ku70; set-up: method as in PMID 27130816; conditions: read-out: IC50, Ku70 interaction with DNA; cited from earlier work

Structure (SMILES): O=C(O)C(=O)CC(=O)c1cc(OCc2ccccc2)cc(OCc2ccccc2)c1 [L-708,906]
IC50 [1]: 500 ± 100 nM

MIC (C. albicans ATCC 10231): 0.4 µg/mL and 0.4 µM
Structure (SMILES): C[C@@H]1[C@H](O)[C@@H](C)/C=C/C=C/C=C/C=C/C=C/C=C/C=C/[C@H](O[C@@H]2O[C@H](C)[C@@H](O)[C@H](N)[C@@H]2O)C[C@@H]2O[C@](O)(C[C@@H](O)C[C@@H](O)[C@H](O)CC[C@@H](O)C[C@@H](O)CC(=O)O[C@H]1C)C[C@H](O)[C@H]2C(=O)O [Amphotericin B, reference compound]

Structure (SMILES): O=C1Nc2ccc(Cl)cc2[C@@](C#CC2CC2)(C(F)(F)F)O1 [EFV, Efavirenz, reference compound]
IC50 [2]: < 50 nM

MIC (S. aureus ATCC 29213): 0.6 µg/mL and 1.3 µM | MIC (P. aeruginosa ATCC 27853): 2 µg/mL and 4.2 µM
Structure (SMILES): CNC(C)C1CCC(N)C(OC2C(N)CC(N)C(OC3OCC(C)(O)C(NC)C3O)C2O)O1 (stereo not shown) [Gentamicin, reference compound]

Structure (SMILES): FC(F)(F)Oc1ccc(Nc2ccc3cccc(Cl)c3n2)cc1 [ABX464]
IC50 [3]: 100 to 500 nM

Structure (SMILES): COc1ccc(CCNc2ncc3c(=O)n(-c4cccc(F)c4)c(=O)[nH]c3n2)cc1OC [STL127705]
IC50 (Ku70): 3500 nM
